# Entries after “also recorded” stand apart in the source; their conditions may differ. Numbered stars: 1 amine (or outer) side, 2 acyl side, 3 side chain; on linkers, the order of the positions; unused ones are H or OH. Bridge positions count the residues as written; N and C are the ends. Square brackets hold non-standard residues; d marks the D form. Ends that are not written are not given here. GlyBU(C4) = Gly building unit (N-alpha-functionalized Gly) carrying a C4 alkyl chain (n = m = 4), bridged through a urea group; CO = O=C([*:1])[*:2]
# What was measured:
# HCT116 cells = experiment: Xenograft tumor model, HCT116 cells inoculated subcutaneously in nude mice; type: in vivo; conditions: s.c., 100 μM, 0.25 mg/30 gm, 3 times/week, from day of inoculation or 4 days later, terminated after 20 days
# Protocol: HCT116 cells (1×10^6) were injected subcutaneously to nude mice. Pc(4-4) (100 μM; 0.25 mg/30 gm) was subcutaneously injected, either at the same day of tumor cell inoculation or 4 days later. The inhibitor was applied repeatedly 3 times/week for 3 weeks. Mice were weighted every 3 days and tumor size was measured. Mice were sacrificed after 21 days. This is a representative of three times performed experiments. […] Tumor volume measurements of HCT116 cells inoculated into nude mice. Tumors were weighed and measured for size at the indicated time points and tumor volume was calculated. Error bars show s.d.; * P<0.05; *** P<0.001; while ns are considered as not significant.
# Another cell lines used in the experiment was HCT-116, an aggressive colon cancer cell line overexpressing oncogenes including PAR4.
# Male athymic nude mice aged 6-7 weeks were pre-implanted subcutaneously with the relevant cells (1×10^6 cells): either with HCT-116 or with RKO/hPar4 cells.
# The inhibitor was injected at the site of the tumor at the day of inoculation. In an additional group, mice implanted with HCT-116 were administered with the inhibitor at day 4 after inoculation. […]
# Mice were monitored for tumor size by external caliber measurements (length and width) on days 7, 14, 22 and for up to 32 days, if tumor burden allowed. Tumor volume (V) was calculated by V=L×W^2×0.5, where L is length and W is width. […]
# pY-EGFR = experiment: PAR4 induced EGFR tyrosine phosphorylation, HEK293 cells co-transfected with flg-Par4 and gfp-egfr (Western blot); type: cell-based, human; conditions: HEK293 cells co-transfected with hPar4 and egfr; AYPGKF 200 μM; 100 μM; FIG. 13B
# Protocol: FIG. 13A—Activation of PAR4 induces phosphorylation of EGFR. HEK293 cells were co-transfected with 0.4 μg of wt flg-Par4 and 0.8 μg of gfp-egfr. Cells were serum starved over night following AYPGKF PAR4 activation (200 μM) for 5-45 min. Detection by Western blot analyses of pY-EGFR and EGFR was performed using either anti-phospho tyrosine or anti EGFR antibodies respectively. PAR4 activation induces EGFR tyrosine phosphorylation within 15 min. FIG. 13B—Pc(4-4) inhibits EGFR phosphorylation. HEK293 cells were co-transfected with 0.8 μg of wt flg-Par4 and 1 μg of gfp-egfr. Cells were serum starved over night following AYPGKF PAR4 activation (200 μM) for 5-45 min in the presence and absence of PAR4 c(4-4) (100 μM). Detection by Western blot analyses of pEGFR and EGFR was performed using either anti-phospho tyrosine or anti EGFR antibodies (1:1000 dilution) respectively. […] FIG. 13C—PAR4 mutants F347L and D349A abolish pTyr-EGFR. HEK293 cells were transiently co-transfected with either flg-Par4 or flg-Par4D349A or flg-hPar4F347L with egfr1 plasmid. Cells were serum starved over night following AYPGKF PAR4 activation (200 μM) for 5-45 min. Detection by Western blot analyses of pY-EGFR and EGFR was performed using either anti-phospho tyrosine or anti-EGFR antibodies respectively. In the presence of flg-Par4 potent pTyr-EGFR1 is observed within 15′ and 30′ AYPGKF activation. […]
substance,measurement,setting,value
"Pc(4-4): backbone cyclic analog of Formula I, m=n=4, ring size 30 atoms (S[GlyBU(C4)]EFRDK[GlyBU(C4)]; bridge 2-8 via CO; not fully specified; printed as SZ1EFRDKX3)",tumor growth / tumor size,HCT116 cells,significantly smaller tumors; also recorded: potently inhibits
same,tumor growth / tumor size,HCT116 cells; listed as PAR4 (4-4),much smaller tumors
same,inhibition of PAR4 induced pY-EGFR,pY-EGFR,potent inhibition; also recorded: potently inhibited
